Patent US6866864B2, “Compositions and methods of use in the treatment of angiogenesis and vascular-related disorders” (priority 2000, dated 2005)

Tests used:
HUVEC = assay: FGF2-induced endothelial cell tube formation on Matrigel; type: cell-based, human
Procedure: For the different in vitro assays human smooth muscle cells and human umbilical vein endothelial (HUVEC) cells were obtained from (Clonetics, Walkersville, Md.). Endothelial cells (EC) were grown to 80-90% confluence in Endothelial Growth Medium (EGM) containing hEGF 10 ng/ml, hydrocortisone […], gentamicin […], amphotercin-B 50 ug/ml, Blood Brain Extract 0.012 mg/ml and 2% Fetal Bovine Serum equilibrated with 95% air/5% CO2 at 37° C. HUVEC cells will be serially passed in Endothelial Growth in cell culture flasks coated with gelatin 0.2%, (Sigma, St. Louis, Mo.). Confluent cultures of endothelial cells between the 3rd and 6th passages were washes with HBSS and harvested using 0.025% trypsin/0.01% EDTA and counted by hemacytometer. […]
Microscopic Analysis of Endothetial Cell Tube Formation: […] Digital images of microtiter well sections were collected using a 3-CCD color video camera system ([…], New York, N.Y.) and analyzed with the Image-Pro Plus software (Media Cybernetics, Silver Spring, Md.). The area and major axis length of stained cells having a tubular morphology on the Matrigel surface counted from 5 images/well. Area data is expressed in units of 10^4 square microns and length data is expressed as length/area in units of mm/mm^2. […]

[1] = test system: human smooth muscle cell migration; assay: Human smooth muscle cell migration toward plasma from MI patients (modified Boyden chamber); type: cell-based; settings: for synergy with antioxidant on the inhibition of human smooth muscle cell migration: garlic ingredients 1 μM each plus ascorbic acid 3 μM, FIG. 5; for effect on human smooth muscle cell migration toward plasma from MI patients: antioxidants alone, 3 μM each, FIG. 3
Procedure: Graph showing the modified Boyden chamber used to examine the effect of garlic ingredients, antioxidants, and combinations on human smooth muscle cell migration toward plasma obtained from acute myocardial infarction patients (MI) during balloon angioplasty and stent coronary intervention.
The procedure is as follow: 20 μl plasma was placed in the bottom chamber (A), smooth muscle suspension 1×10^6 cells in 5 μl with or without the various garlic active ingredients, antioxidants or combinations were placed in the top chamber (B). The chamber B was fitted over chamber A, covered and placed in a CO2 (5%)/O2 (95%) incubator for 22 hours at 37° C. The filter from chamber B was taken out of the chamber and the cells on the top were scraped off using a cell scraper. The filter was placed in formaldehyde, Triton X100, washing buffer solution, stained with Rhodamine phloyden, and then a washing solution as shown in station C (front view) and D (side view). The filter was then dried and put in a fluorescence plate reader to read the degree of fluorescence.

[2] = test system: bFGF-induced angiogenesis on the CAM; assay: FGF2 (bFGF)-induced angiogenesis in the chick chorioallantoic membrane (CAM) model; type: in vivo
Procedure: In Vivo Angiogenesis: Ten-day old chick embryos were purchased from Spafas, Inc. (Preston, Conn.) and were incubated at 37° with 55% humidity generally referred to as chick chorioallantoic membrane (CAM) model. A small hole was punctured in the shell concealing the air sac with a hypodermic needle. A second hole was punctured in the shell on the broadside of the egg directly over an avascular portion of the embryonic membrane, as observed during candling. A false air sac was created beneath the second hole by the application of negative pressure to the first hole, which caused the CAM to separate form the shell. A window, approximately 1.0 cm2, was cut the in the shell over the dropped CAM with the use of a small crafts grinding wheel (Dermal, Division of Emerson Electric Company (Racine, Wis.) which allowed direct access to the underlying CAM.
Filter disks of #1 filter paper (Whatman International, United Kingdom) were soaked in 3 mg/ml cortisone acetate (Sigma, St. Louis, Mo.) in a solution of 95% ethanol and water and subsequently air dried under sterile conditions. […] Blood vessel branch points in the 5 mm filter disk area were counted at 30× magnification in a blinded fashion as a size-independent quantitative indicator of vascular sprouting in response to growth factors. As angiogenesis is characterized by the sprouting of new vessels in response to growth factors, counting blood vessel branch points is a useful quantitative means of obtaining an angiogenic index. […] Data was evaluated in terms of average number of blood vessel branch points per treatment group±standard deviation of measurement. […]
Microscopic Analysis of CAM Sections: CAM tissue directly beneath FGF2-saturated filter disk was resected from embryos treated 48 hours prior with compounds or controls. […] Digital images of CAM sections adjacent to filters were collected using a 3-CCD color video camera system (Toshiba America, New York, N.Y.) and analyzed with the Image-Pro Plus software (Media Cybernetics, Silver Spring, Md.). […]

[3] = test system: tumor growth in the CAM model; assay: Chick chorioallantoic membrane tumor assay model; type: in vivo; settings: different types of tumor; by inhibiting tumor-induced angiogenesis
Procedure: In addition to the angiogenesis assays described above where the effect of the garlic sulfur containing ingredient Alliin±antioxidants were evaluated, the anti-tumor efficacy for Alliin+antioxidants were evaluated as well. Ten million tumor cells were placed on the surface of each CAM and were cultured for one week. The resulting tumors were excised and cut into 50 mg fragments. Cheresh et al., Cell 58: 945-953 (1989), Brooks et al., J. Cell Biol., 122:1351 (1993) and as described herein. These fragments were placed on additional CAMs and treated topically the following day with 0.11 mg in 25 μl of Alliin with and without anti-oxidant or saline. Forty eight hours later, CAMs were excised from the egg and the number of blood vessels entering the tumors were counted (as vessel branch points).
Data presented as mean blood vessel number per treatment group (+/− standard error of measurement). Each treatment group incorporated at least ten tumors per experiment. Representative tumors were photographed at 10× magnification. Tumors were then excised from the egg and tumor weights were determined for each tumor. Data presented as mean tumor weight per treatment group (+/− standard error of measurement). Statistical analyses were performed using Student's t-test.

Alliin was tested. Which “efficacy on FGF2-induced EC tube formation” value (HUVEC; Alliin ± antioxidants, FIG. 10, n=6) did it give?
Its value is “Concentration-dependent efficacy”.

And the “inhibition of cytokine stimulated tube formation” value (HUVEC; HUVEC, FGF2 50 ng/ml, alliin 0-0.011 mg)?
Its value is 90-100%.

And the “synergy with antioxidant on the inhibition of human smooth muscle cell migration” value [1]?
Its value is “synergy”.

What about the “inhibition of smooth muscle cell migration toward plasma from MI subjects” value ([1]; qualitative, micrographs treated vs untreated, FIG. 4) of the same molecule?
The value was “Inhibition of smooth muscle cell migration”.

And the “efficacy on FGF2-induced angiogenesis in the CAM model” value ([2]; Alliin ± antioxidants, FIG. 11B, n=6)?
The value was “Dose-dependent efficacy”.

What about the “blockade of bFGF-induced angiogenesis on the CAM” value ([2]; applied to filter disk or injected intravenously 24 h after bFGF) of the same molecule?
Its value is “at least 92+/−10%”.

And the “inhibition of growth of new blood vessels induced by bFGF (vessel branch points)” value ([2]; applied to the growth factor saturated filter 24 h after bFGF, CAMs excised after three days)?
The value was 92 +/−10%.

What about the “tumor growth in the CAM model” value [3] of the same molecule?
Its value is “inhibited”.

Which “effect on human smooth muscle cell migration toward plasma from MI patients” value [1] does the source give for `O=C1O[C@H]([C@@H](O)CO)C(O)=C1O` [ascorbic acid] here?
Its value is “lack of effect”.

How did the “effect on human smooth muscle cell migration toward plasma from MI patients” value [1] turn out when ethylene diphenyl urea [EDU] was run?
Its value is “lack of effect”.

How did the “synergy with antioxidant on the inhibition of human smooth muscle cell migration” value [1] turn out when `C=CCSSCC=C` [allyl disulfide] was run?
The value was “synergy”.
